Common to all, as to type: cell-based
In experiment [1] the target is hKv1.3 (Homo sapiens, UniProt P22001). Nature of the experiment: cell-based. The conditions noted are these: Kv1.3 (IWQ) IC50 (nM, Avg).
The subject of experiment [2] is IL-2 secretion from T cells in human whole blood. As to conditions: read-out: WB (IL-2) IC50 (nM, Avg).
The test system of experiment [3] is IFN-g secretion from T cells in human whole blood.
Setting [4] is: read-out: WB (IFNg) IC5- (nM, Avg).
[5] abbreviates: read-out: WB (IFNg) IC50 (nM, Avg).

Molecules are shown by their SMILES. Where two headings read alike, the source gives them in different places.

Sequence of hKv1.3 (P22001 whole entry): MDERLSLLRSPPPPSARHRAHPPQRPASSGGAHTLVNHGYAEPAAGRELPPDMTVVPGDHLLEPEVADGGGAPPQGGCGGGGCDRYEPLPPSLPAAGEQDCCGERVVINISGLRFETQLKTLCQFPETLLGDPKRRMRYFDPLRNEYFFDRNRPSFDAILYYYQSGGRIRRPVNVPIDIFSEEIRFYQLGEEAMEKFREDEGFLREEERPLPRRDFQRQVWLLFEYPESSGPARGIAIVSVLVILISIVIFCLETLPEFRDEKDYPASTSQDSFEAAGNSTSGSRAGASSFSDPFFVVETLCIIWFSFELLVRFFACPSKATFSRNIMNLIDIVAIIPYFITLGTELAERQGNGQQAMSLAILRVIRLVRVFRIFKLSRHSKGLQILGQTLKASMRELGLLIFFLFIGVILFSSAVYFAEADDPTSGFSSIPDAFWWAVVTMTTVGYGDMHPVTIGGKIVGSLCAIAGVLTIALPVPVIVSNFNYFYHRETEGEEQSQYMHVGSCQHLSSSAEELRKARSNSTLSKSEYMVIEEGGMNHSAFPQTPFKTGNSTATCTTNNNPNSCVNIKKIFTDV

As to `CC[C@H](C)[C@@H]1NC(=O)[C@H]([C@@H](C)O)NC(=O)[C@H](CC(=O)O)NC(=O)[C@H](CCC(=O)O)NC(=O)[C@@H](NC(=O)[C@H](CO)NC(=O)[C@@H](N)CCCNC(=N)N)CSSC[C@@H](C(=O)O)NC(=O)[C@H]([C@@H](C)O)NC(=O)CNC(=O)[C@@H]2CSSC[C@@H]3NC(=O)[C@H](CCC(N)=O)NC(=O)[C@H](Cc4ccccc4)NC(=O)[C@H](C)NC(=O)[C@H]([C@@H](C)O)NC(=O)[C@H](CSSC[C@H](NC(=O)[C@H](Cc4ccccc4)NC(=O)[C@H](CO)NC(=O)[C@H](CC(C)C)NC(=O)[C@H](CCCNC(=N)N)NC(=O)[C@H](Cc4ccc(O)cc4)NC(=O)[C@H](CCCCN)NC(=O)[C@H](CCSC)NC(=O)[C@H](CO)NC(=O)[C@H](Cc4c[nH]cn4)NC(=O)[C@H](CCCCN)NC3=O)C(=O)N[C@@H](CCCNC(=N)N)C(=O)N[C@@H](CCCCN)C(=O)N[C@@H]([C@@H](C)O)C(=O)N2)NC(=O)[C@H](CCCNC(=N)N)NC(=O)[C@H](CO)NC(=O)[C@H](CCCCN)NC(=O)[C@@H]2CCCN2C1=O` [[Glu4]ShK], the IC50 in experiment [1] stood at 0.07 nM; in experiment [2], 0.031 nM; in experiment [3] (setting [4]) it was 0.049 nM.

As to `CC[C@H](C)[C@@H]1NC(=O)[C@@H](NC(=O)[C@H](CO)NC(=O)[C@@H](N)CCCNC(=N)N)CSSC[C@@H](C(=O)O)NC(=O)[C@H]([C@@H](C)O)NC(=O)CNC(=O)[C@@H]2CSSC[C@@H]3NC(=O)[C@H](CCC(N)=O)NC(=O)[C@H](Cc4ccccc4)NC(=O)[C@H](C)NC(=O)[C@H]([C@@H](C)O)NC(=O)[C@H](CSSC[C@H](NC(=O)[C@H](Cc4ccccc4)NC(=O)[C@H](CO)NC(=O)[C@H](CC(C)C)NC(=O)[C@H](CCCNC(=N)N)NC(=O)[C@H](Cc4ccc(O)cc4)NC(=O)[C@H](CCCCN)NC(=O)[C@H](CCSC)NC(=O)[C@H](CO)NC(=O)[C@H](Cc4c[nH]cn4)NC(=O)[C@H](CCCCN)NC3=O)C(=O)N[C@@H](CCCNC(=N)N)C(=O)N[C@@H](CCCCN)C(=O)N[C@@H]([C@@H](C)O)C(=O)N2)NC(=O)[C@H](CCCNC(=N)N)NC(=O)[C@H](CO)NC(=O)[C@H](CCCCN)NC(=O)[C@@H]2CCCN2C(=O)[C@H]([C@@H](C)CC)NC(=O)[C@H]([C@@H](C)O)NC(=O)[C@H](CCC(=O)O)NC1=O` [[Glu5]ShK], the IC50 in experiment [1] was 3.3 nM; in experiment [2], 16.9 nM; in experiment [3] (setting [4]) it was 24.6 nM.

In the case of `CC[C@H](C)[C@@H]1NC(=O)[C@@H](NC(=O)[C@H](CO)NC(=O)[C@@H](N)CCCNC(=N)N)CSSC[C@@H](C(=O)O)NC(=O)[C@H]([C@@H](C)O)NC(=O)CNC(=O)[C@@H]2CSSC[C@@H]3NC(=O)[C@H](CCC(N)=O)NC(=O)[C@H](Cc4ccccc4)NC(=O)[C@H](C)NC(=O)[C@H]([C@@H](C)O)NC(=O)[C@H](CSSC[C@H](NC(=O)[C@H](Cc4ccccc4)NC(=O)[C@H](CO)NC(=O)[C@H](CC(C)C)NC(=O)[C@H](CCCNC(=N)N)NC(=O)[C@H](Cc4ccc(O)cc4)NC(=O)[C@H](CCCCN)NC(=O)[C@H](CCSC)NC(=O)[C@H](CO)NC(=O)[C@H](Cc4c[nH]cn4)NC(=O)[C@H](CCCCN)NC3=O)C(=O)N[C@@H](CCCNC(=N)N)C(=O)N[C@@H](CCCCN)C(=O)N[C@@H]([C@@H](C)O)C(=O)N2)NC(=O)[C@H](CCCNC(=N)N)NC(=O)[C@H](CO)NC(=O)[C@H](CCCCN)NC(=O)[C@@H]2CCCN2C(=O)[C@H]([C@@H](C)CC)NC(=O)[C@H](CCC(=O)O)NC(=O)[C@H](CC(=O)O)NC1=O` [[Glu6]ShK], the IC50 in experiment [1] is 0.17 nM; in experiment [2] it was 0.073 nM; in experiment [3] (setting [4]) it was 0.109 nM.

Take `CC[C@H](C)[C@@H]1NC(=O)[C@@H](NC(=O)[C@H](CO)NC(=O)[C@@H](N)CCCNC(=N)N)CSSC[C@@H](C(=O)O)NC(=O)[C@H]([C@@H](C)O)NC(=O)CNC(=O)[C@@H]2CSSC[C@@H]3NC(=O)[C@H](CCC(N)=O)NC(=O)[C@H](Cc4ccccc4)NC(=O)[C@H](C)NC(=O)[C@H]([C@@H](C)O)NC(=O)[C@H](CSSC[C@H](NC(=O)[C@H](Cc4ccccc4)NC(=O)[C@H](CO)NC(=O)[C@H](CC(C)C)NC(=O)[C@H](CCCNC(=N)N)NC(=O)[C@H](Cc4ccc(O)cc4)NC(=O)[C@H](CCCCN)NC(=O)[C@H](CCSC)NC(=O)[C@H](CO)NC(=O)[C@H](Cc4c[nH]cn4)NC(=O)[C@H](CCCCN)NC3=O)C(=O)N[C@@H](CCCNC(=N)N)C(=O)N[C@@H](CCCCN)C(=O)N[C@@H]([C@@H](C)O)C(=O)N2)NC(=O)[C@H](CCCNC(=N)N)NC(=O)[C@H](CO)NC(=O)[C@H](CCCCN)NC(=O)[C@@H]2CCCN2C(=O)[C@H](CCC(=O)O)NC(=O)[C@H]([C@@H](C)O)NC(=O)[C@H](CC(=O)O)NC1=O` [[Glu7]ShK]: the IC50 in experiment [1] is 1.25 nM; in experiment [2], 5 nM; in experiment [3] (setting [4]) it was 19.5 nM.

Turning to `CCCC[C@@H]1NC(=O)[C@H](CO)NC(=O)[C@H](Cc2c[nH]cn2)NC(=O)[C@H](CCCCN)NC(=O)[C@@H]2CSSC[C@@H]3NC(=O)[C@H]([C@@H](C)O)NC(=O)[C@H](CCCCN)NC(=O)[C@H](CCCNC(=N)N)NC(=O)[C@H](CSSC[C@H](NC(=O)[C@H](CCCNC(=N)N)NC(=O)[C@H](CO)NC(=O)[C@H](CCC(=O)O)NC(=O)[C@@H]4CCCN4C(=O)[C@H]([C@@H](C)CC)NC(=O)[C@H]([C@@H](C)O)NC(=O)[C@H](CC(=O)O)NC(=O)[C@H]([C@@H](C)CC)NC(=O)[C@@H](NC(=O)[C@H](CO)NC(=O)[C@@H](N)CCCNC(=N)N)CSSC[C@@H](C(N)=O)NC(=O)[C@H]([C@@H](C)O)NC(=O)CNC3=O)C(=O)N[C@@H]([C@@H](C)O)C(=O)N[C@@H](C)C(=O)N[C@@H](Cc3ccccc3)C(=O)N[C@@H](CCCCN)C(=O)N2)NC(=O)[C@H](Cc2ccccc2)NC(=O)[C@H](CO)NC(=O)[C@H](CC(C)C)NC(=O)[C@H](CCCNC(=N)N)NC(=O)[C@H](Cc2ccc(O)cc2)NC(=O)[C@H](CCCCN)NC1=O` [[Glu9, Lys16,Nle21]ShK-amide], the IC50 in experiment [1] is 0.263 nM; in experiment [2], 0.257 nM; in experiment [3] (setting [5]) it was 0.342 nM.

Take `CC[C@H](C)[C@@H]1NC(=O)[C@@H](NC(=O)[C@H](CO)NC(=O)[C@@H](N)CCCNC(=N)N)CSSC[C@@H](C(=O)O)NC(=O)[C@H]([C@@H](C)O)NC(=O)CNC(=O)[C@@H]2CSSC[C@@H]3NC(=O)[C@H](CCC(N)=O)NC(=O)[C@H](Cc4ccccc4)NC(=O)[C@H](C)NC(=O)[C@H]([C@@H](C)O)NC(=O)[C@H](CSSC[C@H](NC(=O)[C@H](Cc4ccccc4)NC(=O)[C@H](CO)NC(=O)[C@H](CC(C)C)NC(=O)[C@H](CCCNC(=N)N)NC(=O)[C@H](Cc4ccc(O)cc4)NC(=O)[C@H](CCCCN)NC(=O)[C@H](CCSC)NC(=O)[C@H](CO)NC(=O)[C@H](Cc4c[nH]cn4)NC(=O)[C@H](CCCCN)NC3=O)C(=O)N[C@@H](CCCNC(=N)N)C(=O)N[C@@H](CCCCN)C(=O)N[C@@H]([C@@H](C)O)C(=O)N2)NC(=O)[C@H](CCCNC(=N)N)NC(=O)[C@H](CO)NC(=O)[C@H](CCC(=O)O)NC(=O)[C@@H]2CCCN2C(=O)[C@H]([C@@H](C)CC)NC(=O)[C@H]([C@@H](C)O)NC(=O)[C@H](CC(=O)O)NC1=O` [[Glu9]ShK]: the values for the IC50 in experiment [1], in experiment [2] and in experiment [3] (setting [4]) were 0.128 nM, 0.036 nM and 0.056 nM, respectively.

In the case of `CCCC[C@@H]1NC(=O)[C@H](CO)NC(=O)[C@H](Cc2c[nH]cn2)NC(=O)[C@H](CCCCN)NC(=O)[C@@H]2CSSC[C@@H]3NC(=O)[C@H]([C@@H](C)O)NC(=O)[C@H](CCCCN)NC(=O)[C@H](CCCNC(=N)N)NC(=O)[C@H](CSSC[C@H](NC(=O)[C@H](CCCNC(=N)N)NC(=O)[C@H](CCC(=O)O)NC(=O)[C@H](CCCCN)NC(=O)[C@@H]4CCCN4C(=O)[C@H]([C@@H](C)CC)NC(=O)[C@H]([C@@H](C)O)NC(=O)[C@H](CC(=O)O)NC(=O)[C@H]([C@@H](C)CC)NC(=O)[C@@H](NC(=O)[C@H](CO)NC(=O)[C@@H](N)CCCNC(=N)N)CSSC[C@@H](C(N)=O)NC(=O)[C@H]([C@@H](C)O)NC(=O)CNC3=O)C(=O)N[C@@H]([C@@H](C)O)C(=O)N[C@@H](C)C(=O)N[C@@H](Cc3ccccc3)C(=O)N[C@@H](CCCCN)C(=O)N2)NC(=O)[C@H](Cc2ccccc2)NC(=O)[C@H](CO)NC(=O)[C@H](CC(C)C)NC(=O)[C@H](CCCNC(=N)N)NC(=O)[C@H](Cc2ccc(O)cc2)NC(=O)[C@H](CCCCN)NC1=O` [[Glu10,Lys16,Nle21]ShK-amide], the results for the IC50 in experiment [1], in experiment [2] and in experiment [3] (setting [5]) were 0.127 nM, 0.776 nM and 1.26 nM, respectively.

`CC[C@H](C)[C@@H]1NC(=O)[C@@H](NC(=O)[C@H](CO)NC(=O)[C@@H](N)CCCNC(=N)N)CSSC[C@@H](C(=O)O)NC(=O)[C@H]([C@@H](C)O)NC(=O)CNC(=O)[C@@H]2CSSC[C@@H]3NC(=O)[C@H](CCC(N)=O)NC(=O)[C@H](Cc4ccccc4)NC(=O)[C@H](C)NC(=O)[C@H]([C@@H](C)O)NC(=O)[C@H](CSSC[C@H](NC(=O)[C@H](Cc4ccccc4)NC(=O)[C@H](CO)NC(=O)[C@H](CC(C)C)NC(=O)[C@H](CCCNC(=N)N)NC(=O)[C@H](Cc4ccc(O)cc4)NC(=O)[C@H](CCCCN)NC(=O)[C@H](CCSC)NC(=O)[C@H](CO)NC(=O)[C@H](Cc4c[nH]cn4)NC(=O)[C@H](CCCCN)NC3=O)C(=O)N[C@@H](CCCNC(=N)N)C(=O)N[C@@H](CCCCN)C(=O)N[C@@H]([C@@H](C)O)C(=O)N2)NC(=O)[C@H](CCCNC(=N)N)NC(=O)[C@H](CCC(=O)O)NC(=O)[C@H](CCCCN)NC(=O)[C@@H]2CCCN2C(=O)[C@H]([C@@H](C)CC)NC(=O)[C@H]([C@@H](C)O)NC(=O)[C@H](CC(=O)O)NC1=O` [[Glu10]ShK]: the IC50 amounted to 0.134 nM in experiment [1], 0.023 nM in experiment [2] and 0.055 nM in experiment [3] (setting [4]).
